Measured values: patent US9963451B2, “Fused ring pyrimidine compound and pest control agent containing the same” (Mitsui Chemicals Agro, Inc., priority 2013, dated 2018)
Counter-ions that a name gives are not always drawn. Like-named read-outs stand apart in the source and are kept apart here.

Assays:
Type in all cases: in vivo
Chilo suppressalis = assay: Test Example 10: insecticidal test against Chilo suppressalis (rice stem dip, single and combined chemicals); settings: after 6 days; for pest or weed control at 1 ppm / Insect death ratio (%): 1 ppm
Method: Insecticidal Test Against Chilo suppressalis
A stem part was cut from a rice plant (breed: Koshihikari) cultivated in water and it was immersed in a chemical solution which has been diluted to have a pre-determined concentration. After air drying, it was put into a 9 cm polyethylene cup having a water-wetted filter paper laid on the bottom thereof, and 3-stage larvae of Chilo suppressalis were released and covered. They were left to stand in an incubator at 25° C., and the numbers of living insects and dead insects were examined after 6 days. There were two series, i.e., 5 insects per group. Meanwhile, in Table 30, when combination of two types of test chemicals are used (i.e., A and B), the combination of the two types was described as A+B, and in the concentration column (ppm), it was described as concentration of A+concentration of B.

Pyricularia oryzae = assay: whole plant or invertebrate
Callosobruchus chinensis = assay: Test Example 5: insecticidal test against Callosobruchus chinensis (petri dish dry film); settings: 24 h, read-out: insect death ratio
Method: Insecticidal Test Against Callosobruchus chinensis
1 ml of acetone solution in which a test compound had been diluted at a predetermined concentration was added dropwise to a petri dish having a diameter of 9 cm, and air dried, and then ten adults of Callosobruchus chinensis were released and the petri dish was covered. They were left to stand in an incubator at 25° C., and the numbers of living insects and dead insects were examined after 1 day. There was no series.

Plutella xylostella = assay: Test Example 4: insecticidal test against Plutella xylostella (cabbage leaf dip); settings: foliar, 144 h, read-out: insect death ratio
Method: Insecticidal Test Against Plutella xylostella
A piece of a cabbage leaf was immersed for 30 seconds in a chemical solution in which the test compound had been added at a predetermined concentration, and air dried, and then put into a 7 cm polyethylene cup having a filter paper laid on the bottom thereof, and five 3-stage larvae of Plutella xylostella were released. They were left to stand in an incubator at 25° C., and the numbers of living insects and dead insects were examined after 6 days. There was no series.

[1] = Chilo suppressalis, 144 h, read-out: Insect death ratio (%)
[2] = Pyricularia oryzae, 168 h, read-out: Rice blast control value
[3] = concentration of 1000 ppm, cabbage leaf dip, 3-stage larvae, 25° C., after 6 days

**Q.** How did the pest or weed control at 300 ppm (Chilo suppressalis; Chilo suppressalis, 144 h, 300 ppm, read-out: Insect death ratio (%)) turn out when CN(C)C(CSC(N)=O)CSC(N)=O [Cartap, Cartap hydrochloride] was run?
**A.** 90%

**Q.** For CNC(=O)c1cc(Cl)cc(C)c1NC(=O)c1cc(Br)nn1-c1ncccc1Cl [Chlorantraniliprole, chlorantraniliprole], which pest or weed control at 1 ppm (Chilo suppressalis; [1]) is on record?
**A.** 80%

**Q.** With CNC(=O)c1cc(C#N)cc(C)c1NC(=O)c1cc(Br)nn1-c1ncccc1Cl [Cyantraniliprole, cyantraniliprole] as the molecule, how does the pest or weed control at 1 ppm (Chilo suppressalis; [1]) read?
**A.** 80%

**Q.** How did the pest or weed control at 0.1 ppm (Chilo suppressalis; [1]) turn out when CN(C(=O)c1ccccc1)c1cccc(C(=O)Nc2c(Br)cc(C(F)(C(F)(F)F)C(F)(F)F)cc2C(F)(F)F)c1F [DD-1] was run?
**A.** 90%

**Q.** For CN(C(=O)c1ccc(F)cc1)c1cccc(C(=O)Nc2c(I)cc(C(F)(C(F)(F)F)C(F)(F)F)cc2C(F)(F)F)c1F [DD-2], which pest or weed control at 0.1 ppm (Chilo suppressalis; [1]) is on record?
**A.** 100%

**Q.** For O=C(Nc1c(I)cc(C(F)(C(F)(F)F)C(F)(F)F)cc1C(F)(F)F)c1cccc(NC(=O)c2cccnc2Cl)c1 [DD-3], which pest or weed control at 0.1 ppm (Chilo suppressalis; [1]) is on record?
**A.** 100%

**Q.** With C[C@@H](NC(=O)C(C#N)C(C)(C)C)c1ccc(Cl)cc1Cl (some centres unmarked) [Diclocymet, diclocymet] as the molecule, how does the pest or weed control at 1.5 ppm (Pyricularia oryzae; [2]) read?
**A.** 95%

**Q.** Which pest or weed control at 50 ppm (Pyricularia oryzae; [2]) does the source give for CC1(C)N=C(c2cnc3ccccc3c2)c2ccccc2C1(F)F [EE-1] here?
**A.** 97%

**Q.** For CC1(C)N=C(c2cnc3ccccc3c2)c2cccc(F)c2C1(C)C [EE-2], which pest or weed control at 50 ppm (Pyricularia oryzae; [2]) is on record?
**A.** 95%

**Q.** CC1(C)N=C(c2cnc3ccccc3c2)c2cccc(F)c2C1(F)F [EE-3] was tested. Which pest or weed control at 50 ppm (Pyricularia oryzae; [2]) did it give?
**A.** 97%

**Q.** For Cc1cc(C(F)(C(F)(F)F)C(F)(F)F)ccc1NC(=O)c1cccc(I)c1C(=O)NC(C)(C)CS(C)(=O)=O [Flubendiamide, flubendiamide], which pest or weed control at 1 ppm (Chilo suppressalis; [1]) is on record?
**A.** 80%

**Q.** CC(C)OC(=O)C(C(=O)OC(C)C)=C1SCCS1 [Isoprothiolane, isoprothiolane] was tested. Which pest or weed control at 6 ppm (Pyricularia oryzae; [2]) did it give?
**A.** 97%

**Q.** How did the “Rice blast control value” (Pyricularia oryzae; 1 ppm, spots counted 7 days later) turn out when N#Cc1ccccc1NC(=O)c1snc(Cl)c1Cl [Isotianil, isotianil] was run?
**A.** 97

**Q.** With CNC(=O)/C(=N/OC)c1ccccc1CO/N=C(C)/C(=N/OC)C(/C)=N/OC [Orysastrobin, orysastrobin] as the molecule, how does the “Rice blast control value” (Pyricularia oryzae; 3.5 ppm, spots counted 7 days later) read?
**A.** 95

**Q.** How did the pest or weed control at 12 ppm (Pyricularia oryzae; [2]) turn out when C=CCOC1=NS(=O)(=O)c2ccccc21 [Probenazole, probenazole] was run?
**A.** 96%

**Q.** CC(=O)Oc1c(C)c(C)nc2c(F)cc(C(C)(C)C)cc12 [Tebufloquin, tebufloquin] was tested. Which “Rice blast control value” (Pyricularia oryzae; 100 ppm, spots counted 7 days later) did it give?
**A.** 98

**Q.** Cc1ccc(C(=O)NC[C@@H](NC(=O)OCC(F)(F)F)C(C)C)cc1 [Tolprocarb, tolprocarb] was tested. Which “Rice blast control value” (Pyricularia oryzae; in vivo) did it give?
**A.** 97

**Q.** For Cc1cccc2sc3nncn3c12 [Tricyclazole, tricyclazole], which pest or weed control at 2 ppm (Pyricularia oryzae; [2]) is on record?
**A.** 98%

**Q.** And the pest or weed control at 200 ppm (Pyricularia oryzae; [2])?
**A.** 97%

**Q.** For Cc1cc(=O)n2nc(S(C)(=O)=O)nc2n1Cc1ccc(Cl)nc1 [compound 10, 4-((6-chloropyridin-3-yl)methyl)-5-methyl-2-(methylsulfonyl)-[1,2,4]triazolo[1,5-a]pyrimidin-7(4H)-one], which pest or weed control at 1000 ppm (Callosobruchus chinensis) is on record?
**A.** ≥ 70%

**Q.** With Cc1cc(=O)n2nc(SCc3cccc(C(F)(F)F)c3)nc2n1Cc1ccc(Cl)nc1 [compound 16] as the molecule, how does the pest or weed control at 1000 ppm (Plutella xylostella; [3]) read?
**A.** ≥ 70%

**Q.** Which pest or weed control at 1000 ppm (Plutella xylostella) does the source give for Cc1cc(=O)n2nc(SCCC(F)(F)F)nc2n1Cc1ccc(Cl)nc1 [compound 22] here?
**A.** ≥ 70%

**Q.** How did the pest or weed control at 1000 ppm (Plutella xylostella) turn out when Cc1cc(=O)n2nc(SCCCC(F)(F)F)nc2n1Cc1ccc(Cl)nc1 [compound 23] was run?
**A.** ≥ 70%

**Q.** Which pest or weed control at 1000 ppm (Plutella xylostella) does the source give for CSc1nc2n(Cc3ccc(Cl)nc3)c(C)cc(=S)n2n1 [compound 24, 4-((6-chloropyridin-3-yl)methyl)-5-methyl-2-(methylthio)-[1,2,4]triazolo[1,5-a]pyrimidin-7(4H)-thione] here?
**A.** ≥ 70%

**Q.** For CCc1c(C)n(Cc2ccc(Cl)nc2)c2nc(SC)nn2c1=O [compound 25], which pest or weed control at 1000 ppm (Plutella xylostella) is on record?
**A.** ≥ 70%

**Q.** Cc1cc(=O)n2nc([S+](C)[O-])nc2n1Cc1ccc(Cl)nc1 (centres unmarked) [compound 26] was tested. Which pest or weed control at 1000 ppm (Callosobruchus chinensis) did it give?
**A.** ≥ 70%

**Q.** For Cc1cc(=O)n2nc(-c3ccccc3F)nc2n1Cc1ccc(Cl)nc1 [compound 28], which pest or weed control at 1000 ppm (Plutella xylostella) is on record?
**A.** ≥ 70%

**Q.** How did the pest or weed control at 1000 ppm (Plutella xylostella) turn out when CCSc1nc2n(Cc3ccc(Cl)nc3)c(C)cc(=O)n2n1 [compound 29] was run?
**A.** ≥ 70%

**Q.** Which pest or weed control at 1000 ppm (Callosobruchus chinensis) does the source give for COc1nc2n(Cc3ccc(Cl)nc3)c(C)cc(=O)n2n1 [compound 45, 4-((6-chloropyridin-3-yl)methyl)-2-methoxy-5-methyl-[1,2,4]triazolo[1,5-a]pyrimidin-7(4H)-one] here?
**A.** ≥ 70%

**Q.** For Cc1cc(=O)n2nc(OCC(F)(F)F)nc2n1Cc1ccc(Cl)nc1 [compound 46], which pest or weed control at 1000 ppm (Callosobruchus chinensis) is on record?
**A.** ≥ 70%

**Q.** For Cc1cc(=O)n2nc(C(C)(F)F)nc2n1Cc1ccc(Cl)nc1 [compound 59], which pest or weed control at 1000 ppm (Callosobruchus chinensis) is on record?
**A.** ≥ 70%

**Q.** How did the pest or weed control at 1000 ppm (Callosobruchus chinensis) turn out when Cc1cc(=O)n2nc(S(C)(=O)=NC#N)nc2n1Cc1ccc(Cl)nc1 (centres unmarked) [compound 76] was run?
**A.** ≥ 70%

**Q.** How did the pest or weed control at 1000 ppm (Callosobruchus chinensis) turn out when Cc1cc(=O)n2nc(-n3cccn3)nc2n1Cc1ccc(Cl)nc1 [compound 80] was run?
**A.** ≥ 70%

**Q.** For Cc1cc(=O)n2nc(OC(C)c3ccc(C(F)(F)F)cc3)nc2n1Cc1ccc(Cl)nc1 (centres unmarked) [compound 106], which pest or weed control at 1000 ppm (Plutella xylostella; [3]) is on record?
**A.** ≥ 70%

**Q.** Which pest or weed control at 1000 ppm (Callosobruchus chinensis) does the source give for CSc1nc2n(Cc3ccc(Cl)nc3)c(C)c/c(=N\O)n2n1 [compound 121, 4-((6-chloropyridin-3-yl)methyl)-5-methyl-2-(methylthio)-[1,2,4]triazolo[1,5-a]pyrimidin-7(4H)-oneoxime] here?
**A.** ≥ 70%

**Q.** For Cc1cc(=O)n2nc([S+]([O-])CC(F)(F)F)nc2n1Cc1ccc(Cl)nc1 (centres unmarked) [compound 189], which pest or weed control at 1000 ppm (Plutella xylostella) is on record?
**A.** ≥ 70%

**Q.** With Cc1cc(=O)n2nc(S(=O)(=O)CC(F)(F)F)nc2n1Cc1ccc(Cl)nc1 [compound 190] as the molecule, how does the pest or weed control at 1000 ppm (Callosobruchus chinensis) read?
**A.** ≥ 70%

**Q.** Which pest or weed control at 1000 ppm (Plutella xylostella) does the source give for CSc1cc2n(Cc3ccc(Cl)nc3)c(C)c(C)c(=O)n2n1 [compound 236] here?
**A.** ≥ 70%

**Q.** CSc1cc2n(Cc3ccc(Cl)nc3)c(C)c(F)c(=O)n2n1 [compound 237] was tested. Which pest or weed control at 1000 ppm (Plutella xylostella) did it give?
**A.** ≥ 70%

**Q.** How did the pest or weed control at 1000 ppm (Plutella xylostella) turn out when Cc1cc(=O)n2nc(C(F)F)cc2n1Cc1ccc(Cl)nc1 [compound 241] was run?
**A.** ≥ 70%

**Q.** CCSc1cc2n(Cc3ccc(Cl)nc3)c(C)cc(=O)n2n1 [compound 243] was tested. Which pest or weed control at 1000 ppm (Plutella xylostella) did it give?
**A.** ≥ 70%

**Q.** With CC[S+]([O-])c1cc2n(Cc3ccc(Cl)nc3)c(C)cc(=O)n2n1 (centres unmarked) [compound 244] as the molecule, how does the pest or weed control at 1000 ppm (Callosobruchus chinensis) read?
**A.** ≥ 70%

**Q.** How did the pest or weed control at 1000 ppm (Callosobruchus chinensis) turn out when Cc1cc(=O)n2nc(C(F)(F)F)cc2n1Cc1cnc(Cl)cc1Cl [compound 248] was run?
**A.** ≥ 70%

**Q.** CCSc1cc2n(Cc3cnc(Cl)c(F)c3)c(C)cc(=O)n2n1 [compound 252] was tested. Which pest or weed control at 1000 ppm (Callosobruchus chinensis) did it give?
**A.** ≥ 70%

**Q.** How did the pest or weed control at 1000 ppm (Callosobruchus chinensis) turn out when Cc1cc(=O)n2nc(C(F)(F)F)cc2n1Cc1cnc(Cl)c(F)c1 [compound 253] was run?
**A.** ≥ 70%

**Q.** With CSc1cc2n(Cc3cnc(Cl)nc3)c(C)cc(=O)n2n1 [compound 299] as the molecule, how does the pest or weed control at 1000 ppm (Callosobruchus chinensis) read?
**A.** ≥ 70%

**Q.** Which pest or weed control at 1000 ppm (Callosobruchus chinensis) does the source give for CSc1nc2n(Cc3cnc(Cl)c(F)c3)c(C)cc(=O)n2n1 [compound 306] here?
**A.** ≥ 70%

**Q.** For CSc1cc2n(Cc3cnc(Cl)c(F)c3)c(C)cc(=O)n2n1 [compound 307], which pest or weed control at 1000 ppm (Callosobruchus chinensis) is on record?
**A.** ≥ 70%

**Q.** spinetoram was tested. Which “Insect death ratio (%)” value (Chilo suppressalis) did it give?
**A.** 100%

**Q.** With spinosad as the molecule, how does the “Insect death ratio (%)” value (Chilo suppressalis) read?
**A.** 70%
